According to patent US20040254162A1, “Oxazolidinone derivatives as antimicrobials” (priority 2001, published 2004):
Converted amounts (≈) assume the structure as drawn. “And” between values parts separate entries of the source, which are not always exact repeats. Equal entries are not always repeated.

Key:
MRSA 562 [1] = test: In vivo activity against MRSA 562 (ED50); set-up: species or system Methicillin Resistant Staphylococcus aureus; conditions: PO; MRSA 562 infection
MRSA 562 [2] = test: MIC, agar incorporation method; conditions: for MIC: MRSA 562, Table 5; for MIC MRSA 562: agar incorporation, Table 1
S. aureus ATCC 25923 = test: MIC, agar incorporation method; conditions: agar incorporation
MRSA 15187 = test: MIC, agar incorporation method; conditions: agar incorporation
MRSA 33 = test: MIC, agar incorporation method; conditions: agar incorporation
Ent. faecalis ATCC 29212 = test: MIC, agar incorporation method; conditions: agar incorporation
VRE 6A (Ent. faecium 6A) = test: MIC, agar incorporation method; conditions: agar incorporation
Strep. pyog. ATCC 19615 = test: MIC, agar incorporation method; conditions: agar incorporation
Strep. pne. ATCC 6303 = test: MIC, agar incorporation method; conditions: agar incorporation
S. pneum AB 34 = test: MIC, agar incorporation method; conditions: agar incorporation
G +ve bacteria = test: Summary of in vitro activity (MIC); conditions: for MIC50 / MIC90: G +ve, Number 49; for Geometric Mean of in vitro activity (MIC): Gram + ve
S. aureus = test: Summary of in vitro activity (MIC); conditions: S. aureus; for MIC50 / MIC90: Number 8
E. faecalis = test: Summary of in vitro activity (MIC); conditions: E. faecalis; for MIC50 / MIC90: Number 7
S. pneumoniae = test: Summary of in vitro activity (MIC); conditions: S. pneumoniae; for MIC50 / MIC90: Number 19

Compound | ED50 (mg/kg body weight) PO (MRSA 562 [1]) | MIC (MRSA 562 [2]) | MIC S. aureus 25923 (S. aureus ATCC 25923) | MIC MRSA 15187 (MRSA 15187) | MIC MRSA 562 (MRSA 562 [2]) | MIC MRSA 33 (MRSA 33) | MIC E. faecalis 29212 (Ent. faecalis ATCC 29212) | MIC VRE 6A (VRE 6A (Ent. faecium 6A)) | MIC S. pyogenes 19615 (Strep. pyog. ATCC 19615) | MIC S. pneum 6303 (Strep. pne. ATCC 6303) | MIC S. pneum AB 34 (S. pneum AB 34) | MIC50 (G +ve bacteria) | MIC90 (G +ve bacteria) | Geometric Mean of in vitro activity (MIC) (G +ve bacteria) | Geometric Mean of in vitro activity (MIC) (S. pneumoniae) | MIC50 (S. pneumoniae) | MIC90 (S. pneumoniae) | further results
CC(=O)NC[C@H]1CN(c2ccc(N3CCN(Cc4ccc(NC=O)o4)CC3)c(F)c2)C(=O)O1 [Compound No. 67] | >25 mg/kg body weight | 2 µg/mL (≈ 4.35 µM) | – | – | – | – | – | – | – | – | – | – | – | – | – | – | – | –
CC(=O)NC[C@H]1CN(c2ccc(N3CCN(C(=O)C(=O)c4cccs4)CC3)c(F)c2)C(=O)O1 [Compound No. 07, (S)-N[[3-[3-Fluoro-4-[N-1[4-{2-(2-thienyl)dicarbonyl}]piperazinyl]phenyl]2-oxo-5-oxazolidinyl]methyl]acetamide] | >25 mg/kg body weight | 2 µg/mL (≈ 4.21 µM) | 2 µg/mL (≈ 4.21 µM) | 2 µg/mL (≈ 4.21 µM) | 2 µg/mL (≈ 4.21 µM) | 2 µg/mL (≈ 4.21 µM) | 2 µg/mL (≈ 4.21 µM) | 2 µg/mL (≈ 4.21 µM) | 0.5 µg/mL (≈ 1.05 µM) | 2 µg/mL (≈ 4.21 µM) | 2 µg/mL (≈ 4.21 µM) | – | – | – | – | – | – | –
CC(=O)NC[C@H]1CN(c2ccc(N3CCC(N(C)Cc4ccc([N+](=O)[O-])o4)CC3)c(F)c2)C(=O)O1 [Compound No. 50, (S)-N-[[3-[4-[4-(N-methyl-N-2-furyl(5-nitro)methyl)aminopiperidine-1-yl]-3-fluorophenyl]-2-oxo-oxazolidin-5-yl]methyl]acetamide] | – | 0.5 µg/mL (≈ 1.02 µM) | 1 µg/mL (≈ 2.04 µM) | 1 µg/mL (≈ 2.04 µM) | 0.5 µg/mL (≈ 1.02 µM) | 1 µg/mL (≈ 2.04 µM) | 0.5 µg/mL (≈ 1.02 µM) | 0.25 µg/mL (≈ 0.511 µM) | 0.125 µg/mL (≈ 0.255 µM) | 0.5 µg/mL (≈ 1.02 µM) | 2 µg/mL (≈ 4.09 µM) | 1 µg/mL (≈ 2.04 µM) | 2 µg/mL (≈ 4.09 µM) | 0.72 µg/mL | 1.41 µg/mL | 1 µg/mL (≈ 2.04 µM) | 2 µg/mL (≈ 4.09 µM) | Geometric Mean of in vitro activity (MIC) (S. aureus): 1 µg/mL; MIC50 (S. aureus): 1 µg/mL (≈ 2.04 µM); MIC90 (S. aureus): 2 µg/mL (≈ 4.09 µM); Geometric Mean of in vitro activity (MIC) (E. faecalis): 0.42 µg/mL; MIC50 (E. faecalis): 0.5 µg/mL (≈ 1.02 µM); MIC90 (E. faecalis): 1 µg/mL (≈ 2.04 µM)
CC(=O)NC[C@H]1CN(c2ccc(N3CC4C(C3)C4N(C)C(=O)Cc3cccs3)c(F)c2)C(=O)O1 (stereo partly drawn) [Compound No. 71, (S)-N-[[3-[3-Fluoro[4-[3-(1α,5α,6α)-6-[N-(2-thiopheneacetyl)-N-methyl]amino]-3-azabicyclo-[3.1.0]hexane]phenyl]-2-oxo-5-oxazolidinyl]methyl]acetamide] | >25 mg/kg body weight | 4 µg/mL (≈ 8.22 µM) | 8 µg/mL and 4 µg/mL | 8 µg/mL and 4 µg/mL | – | 8 µg/mL and 4 µg/mL | 8 µg/mL and 4 µg/mL | 8 µg/mL and 4 µg/mL | 4 µg/mL and 2 µg/mL | 4 µg/mL (≈ 8.22 µM) | 2 µg/mL and 4 µg/mL | – | – | – | – | – | – | –
CC(=O)NC[C@H]1CN(c2ccc(N3CCN(C(=O)c4ccc(Br)o4)CC3)c(F)c2)C(=O)O1 [Compound No. 04] | >25 mg/kg body weight | – | 2 µg/mL (≈ 3.93 µM) | 2 µg/mL (≈ 3.93 µM) | – | 2 µg/mL (≈ 3.93 µM) | 2 µg/mL (≈ 3.93 µM) | 1 µg/mL (≈ 1.96 µM) | 2 µg/mL (≈ 3.93 µM) | 1 µg/mL (≈ 1.96 µM) | 1 µg/mL (≈ 1.96 µM) | – | – | – | – | – | – | –
CC(=O)NC[C@H]1CN(c2ccc(N3CCN(Cc4ccc(C=NN)o4)CC3)c(F)c2)C(=O)O1 [Compound No. 62, (S)-N-[[3-[3-Fluoro-4[N-1-[4-{2-furyl-(5-hydrazone)-methyl}]-piperazinyl]-phenyl]-2-oxo-5-oxazolidinyl]-methyl]acetamide] | – | – | 2 µg/mL (≈ 4.36 µM) | 2 µg/mL (≈ 4.36 µM) | 1 µg/mL (≈ 2.18 µM) | 2 µg/mL (≈ 4.36 µM) | 8 µg/mL (≈ 17.4 µM) | 8 µg/mL (≈ 17.4 µM) | 8 µg/mL (≈ 17.4 µM) | 8 µg/mL (≈ 17.4 µM) | 8 µg/mL (≈ 17.4 µM) | – | – | – | – | – | – | –
CC(=O)NC[C@H]1CN(c2ccc(N3CCN(Cc4ccc(C5OCCCO5)o4)CC3)c(F)c2)C(=O)O1 [Compound No. 66] | – | – | 2 µg/mL (≈ 3.98 µM) | 2 µg/mL (≈ 3.98 µM) | 2 µg/mL (≈ 3.98 µM) | 2 µg/mL (≈ 3.98 µM) | 16 µg/mL (≈ 31.8 µM) | 16 µg/mL (≈ 31.8 µM) | 8 µg/mL (≈ 15.9 µM) | 8 µg/mL (≈ 15.9 µM) | 8 µg/mL (≈ 15.9 µM) | – | – | – | – | – | – | –
CC(=O)NC[C@H]1CN(c2ccc(N3CC4C(CN(C)Cc5ccc([N+](=O)[O-])o5)C4C3)c(F)c2)C(=O)O1 (stereo partly drawn) [Compound No. 40, (S)-N-[[3-[3-Fluoro[4-[3-(1α,5α,6α)-6-[N-(5-nitro-2-furylmethyl)-N-methyl]amino-methyl]-3-azabicyclo-[3.1.0]hexane]phenyl]-2-oxo-5-oxazolidinyl]methyl]acetamide] | – | – | 2 µg/mL (≈ 3.99 µM) | 2 µg/mL (≈ 3.99 µM) | 1 µg/mL (≈ 1.99 µM) | 2 µg/mL (≈ 3.99 µM) | 2 µg/mL (≈ 3.99 µM) | 4 µg/mL (≈ 7.98 µM) | 0.125 µg/mL (≈ 0.249 µM) | – | 2 µg/mL (≈ 3.99 µM) | 1 µg/mL (≈ 1.99 µM) | 2 µg/mL (≈ 3.99 µM) | 0.93 µg/mL | 0.71 µg/mL | 1 µg/mL (≈ 1.99 µM) | 1 µg/mL (≈ 1.99 µM) | Geometric Mean of in vitro activity (MIC) (S. aureus): 1.83 µg/mL; MIC50 (S. aureus): 2 µg/mL (≈ 3.99 µM); MIC90 (S. aureus): 4 µg/mL (≈ 7.98 µM); Geometric Mean of in vitro activity (MIC) (E. faecalis): 2.38 µg/mL; MIC50 (E. faecalis): 2 µg/mL (≈ 3.99 µM); MIC90 (E. faecalis): 4 µg/mL (≈ 7.98 µM)
CC(=O)NC[C@H]1CN(c2ccc(N3CC4C(CN(C)Cc5ccc([N+](=O)[O-])s5)C4C3)c(F)c2)C(=O)O1 (stereo partly drawn) [Compound No. 39, (S)-N-[[3-[3-Fluoro[4-[3-(1α,5α,6α)-6-[N-(5-nitro-2-thienylmethyl)-N-methyl]-amino-methyl]-3-azabicyclo-[3.1.0]hexane]phenyl]-2-oxo-5-oxazolidinyl]methyl]acetamide] | – | – | 8 µg/mL (≈ 15.5 µM) | 8 µg/mL (≈ 15.5 µM) | 8 µg/mL (≈ 15.5 µM) | 4 µg/mL (≈ 7.73 µM) | 2 µg/mL (≈ 3.86 µM) | 8 µg/mL (≈ 15.5 µM) | 0.5 µg/mL (≈ 0.966 µM) | 0.5 µg/mL (≈ 0.966 µM) | 0.5 µg/mL (≈ 0.966 µM) | – | – | – | – | – | – | –
CC1(C)S[C@@H]2[C@H](NC(=O)Cc3ccccc3)C(=O)N2[C@H]1C(=O)O [Penicillin G, reference compound] | – | – | – | – | – | – | – | – | – | – | – | 4 µg/mL (≈ 12 µM) | 32 µg/mL (≈ 95.7 µM) | 0.76 µg/mL | 2.16 µg/mL | 4 µg/mL (≈ 12 µM) | 32 µg/mL (≈ 95.7 µM) | –
